This note sets out measurements from PMC8861568, “Identification of (Z)-2-benzylidene-dihydroimidazothiazolone derivatives as tyrosinase inhibitors: Anti-melanogenic effects and in silico studies” (Computational and Structural Biotechnology Journal, 2022).

Entries after “also recorded” stand apart in the source; their conditions may differ.

Data set [1] concerns B16F10 cells. Description: Cell viability, EZ-cytox assay. It counts as cell-based, murine. As to conditions: up to 20 μM, 48 h. How it is done: Before examining inhibitory effects of compounds 1b and 1f on cellular tyrosinase activity, we examined their cytotoxic effects on B16F10 murine cells using the EZ-cytox assay (Daeil Lab Service, Seoul, Korea). After B16F10 cells had been cultured for 24 h, cells were treated with different concentrations (0, 1, 2, 5, 10 or 20 μM) of 1b or 1f for 48 h in a humidified atmosphere. Optical densities (ODs) were measured at 450 nm using a microplate reader.
Cell viability assays were performed at 37 °C as previously described with minor modification using the EZ-cytox assay. In brief, B16F10 melanoma cells were seeded in 96-well plates at a density of 1 × 10^4 cells/well and incubated in a humidified 5% CO2 atmosphere for 24 h at 37 °C. Cells were then treated with compounds 1b or 1f at 0, 1, 2, 5, 10, or 20 µM/well for 48 h. EZ-cytox solution (10 µL) (Daeil Lab Service, Seoul, Korea) was then added to each well and incubated for 1 h at 37 °C. Cell viabilities were assessed by measuring absorbances at 450 nm using a microplate reader (VersaMax^TM, Molecular Devices, Sunnyvale, CA, USA). All experiments were independently conducted three times.

Data set [2] relates to mushroom tyrosinase (mTYR). Description: Mushroom tyrosinase inhibition assay. It is filed as biochemical, Agaricus bisporus. As to conditions: for IC50: mushroom tyrosinase, L-tyrosine substrate. How it is done: The tyrosinase inhibitory activity assays on the synthesized DHIT derivatives 1a – 1 k was performed using mushroom tyrosinase (mTYR), as previously described with minor modification. […] The optical densities of dopachrome produced during incubation were measured using a microplate reader (VersaMax™, Molecular Devices, Sunnyvale, CA, USA) at 492 nm. […] All experiments were conducted in triplicate. To calculate the tyrosinase inhibitory activities, the following formula was used: % inhibition = [(1− (A/B)) × 100], where A is test sample optical density and B is the optical density of the non-treated control.
IC50 values were calculated by plotting linear regression curves of percentage inhibitions versus derivative concentrations. The negative control was obtained by adding dimethyl sulfoxide (DMSO) instead of a DHIT derivative.

Data set [3] has as its system B16F10 cells. Description: Intracellular melanin content in B16F10 cells. It is filed as cell-based, murine. As to conditions: 48 h; for intracellular melanin production compared with kojic acid: α-MSH + IBMX; for intracellular melanin production: 5, 10, 20 μM, α-MSH 1 μM + IBMX 200 μM. On the procedure: To determine whether the inhibitory effects of compounds 1b and 1f on cellular TYR influence melanogenesis, cellular melanin production was measured. As was performed in TYR inhibition experiments, B16F10 cells co-stimulated with α -MSH and IBMX were used to compare the inhibitory effects of 1b and 1f on melanogenesis. Kojic acid was used as the positive control. […] Intracellular melanin contents were determined by measuring optical densities at 405 nm.
(§1) The inhibitory effects of compounds 1b and 1f on intracellular melanin contents were investigated as previously described. B16F10 cells were seeded at a density of 1 × 10^5 cells/well in 6-well plates and incubated in a humidified 5% CO2 atmosphere for 24 h at 37 °C. […] For extracellular melanin contents, the optical density of the cell culture media was directly measured at 405 nm. On the other hand, for intracellular melanin contents, the following procedure was performed. Briefly, after washing twice with PBS, adherent cells were detached by incubation in Trypsin/EDTA for 1 min. Pellets were dissolved in 100 μL of 1 N NaOH and then incubated for 1 h at 60 °C to dissolve the melanin. Intracellular melanin was quantified by measuring optical densities at 405 nm using a microplate reader (VersaMax^TM, Molecular Devices, Sunnyvale, CA, USA). Results were normalized versus cell pellet total protein using BCA protein assay reagent using BSA as the standard (Thermo Scientific, Rockford, IL, USA). The intracellular melanin contents were calculated using the following equation: (ΔODsample/ΔODcontrol) × 100%; where ΔODsample = the optical density of the test compound, and ΔODcontrol = the optical density of control. Experiments were performed in triplicate.

The test system of data set [4] is B16F10 cells. Description: Extracellular melanin (melanin level in medium) of B16F10 cells. It counts as cell-based, murine. As to conditions: 48 h; for melanin levels in media compared with kojic acid: α-MSH + IBMX; for melanin levels in media: 5, 10, 20 μM, α-MSH 1 μM + IBMX 200 μM. How it is done: To determine whether melanin levels in cell culture media were influenced by compounds 1b or 1f, melanin contents in B16F10 cell culture media after treatments with derivatives at different concentrations in the presence of α -MSH and IBMX for 48 h were analyzed by measuring optical densities at 405 nm using a microplate reader.
as §1

For `O=c1/c(=C/c2ccc(O)cc2O)sc2n1CCN=2` [Compound 1b, (Z)-2-(2,4-Dihydroxybenzylidene)-5,6-dihydroimidazo[2,1-b]thiazol-3(2H)-one], the “cytotoxic effect on B16F10 cells” value with B16F10 cells [1] is listed as “without perceptible cytotoxicity; also recorded: Neither 1b nor 1f had a significant cytotoxic effect”. In data set [2], the “mushroom tyrosinase inhibition compared with kojic acid” value is recorded as “inhibited mTYR more than kojic acid” and the IC50 is 0.88 ± 0.91 µM. Further, in data set [2] (ratio of IC50 values), the “fold more potent tyrosinase inhibition than MHY773” value is given as about 3.3 fold. Moreover, the “intracellular melanin production compared with kojic acid” value in the data set on B16F10 cells [3] (1b at 5 μM) is “by the same extent as kojic acid at 20 μM”. In addition, the intracellular melanin production result with B16F10 cells [3] is “significantly and concentration-dependently suppressed this increase”. The “melanin levels in media compared with kojic acid” value with B16F10 cells [4] (1b at 5 μM) is recorded as “suppressed these increases more than kojic acid at 20 μM”. In addition, the “melanin levels in media” value with B16F10 cells [4] is “significantly and concentration-dependently suppressed these increases”.
Take `COc1ccc(/C=c2\sc3n(c2=O)CCN=3)cc1O` [Compound 1f, (Z)-2-(3-Hydroxy-4-methoxybenzylidene)-5,6-dihydroimidazo[2,1-b]thiazol-3(2H)-one]: the “cytotoxic effect on B16F10 cells” value with B16F10 cells [1] is on record as “without perceptible cytotoxicity; also recorded: Neither 1b nor 1f had a significant cytotoxic effect”. Also, in data set [2], the “mushroom tyrosinase inhibition compared with kojic acid” value is “inhibited mTYR more than kojic acid” and the 50% inhibitory concentration (IC50) was 17.1 ± 1.01 µM. Besides, the “fold stronger tyrosinase inhibitor than kojic acid” value in data set [2] (ratio of IC50 values) came out at 4.9 fold. For the same molecule, the “intracellular melanin production compared with kojic acid” value in the data set with B16F10 cells [3] (1f at 20 μM, kojic acid 20 μM) is given as “stronger inhibitory effect on melanogenesis than kojic acid”. Further, the intracellular melanin production entry in the data set with B16F10 cells [3] is “significantly and concentration-dependently suppressed this increase”. Besides, the “melanin levels in media compared with kojic acid” value in the data set with B16F10 cells [4] (1f at 20 μM) is given as “suppressed these increases more than kojic acid at 20 μM”. The “melanin levels in media” value in the data set with B16F10 cells [4] is “significantly and concentration-dependently suppressed these increases”.

Usually IC50 stands for the concentration needed to halve the response being measured. Low values mean greater potency, high ones weaker potency.
